The results in this text go back to US9788567B2, “Ergothioneine-containing hens egg and method of preparing hens feed for producing same” (Origin Biotechnology Kabushikikaisha, priority 2013, dated 2017).

The conditions of series [1]: in vivo.
Method: (§1) Thus, 14 ml of the obtained concentrate solution containing the ergothioneine were mixed in 120 g of the feed for hen used generally, it were mixed with the mixing stirrer 4, and the feed for the laying hen 41 was obtained. The feed for the laying hen 41 of 120 g per a hen was continuously fed to the laying hen for 36 days, dividing into four times a day.
The feeding and raising to the laying hen, and the measurement of the ergothioneine content in the egg yolk of the egg extracted in the meantime are performed in the same way as the example 2. In a fixed amount of the ergothioneine in the measurement of the ergothioneine content in the egg yolk of each egg here, the chromatogram of an internal standard substance and the ergothioneine are obtained from the egg yolk which preliminarily added the internal standard substance of the known amount by a high performance chromatography, the amount of the ergothioneine is measured from the ratio of the peak area of the ergothioneine to that of the internal standard substance.
In FIG. 4, one egg (a total of ten eggs) which each of the ten hens will lay on the 1 day is extracted for every lapsed days which start of the feed of the general feed for the hen, start of the feed of the laying hen, start of the feed of the general feed for the hen to stop of the feed of the laying hen and continue on the 71th day. The ergothioneine content in each egg yolk is measured, and the average value of the ergothioneine content in the egg yolk of these ten eggs is denoted by a graph.
The conditions of series [2]: in vivo. This is another data set of the same source.
Method: as §1
The feeding and raising to the laying hen, and the measure of the ergothioneine content in the egg white of the egg extracted in the meantime are performed in the following ways. Numbering was carried out to ten hens, respectively, and it stored one hen in the raising gauge, and one egg (a total of ten eggs) which each hen will lay on the 1 day was extracted, numbering was carried out to each egg, and the ergothioneine content in the egg white of each egg was measured. In a fixed amount of the ergothioneine, the chromatogram of an internal standard substance and the ergothioneine are obtained from the egg white which preliminarily added the internal standard substance of the known amount by a high performance chromatography, the amount of the ergothioneine is measured from the ratio of the peak area of the ergothioneine to that of the internal standard substance.
In the measurement of the ergothioneine content in the egg white, the feed for the hen used generally (the general feed for the hen) was fed for 5 days (minus fifth day to minus first day), the feed of the laying hen which mixed the concentrate solution containing the ergothioneine continuously was fed for 36 days (0 day to 36th day), the feed of the laying hen was stopped after that, the general feed for the hen was started, and it carried out till 71th day. […] The ergothioneine content in each egg white is measured, and the average value of the ergothioneine content in the egg white of these ten eggs is denoted by a graph.

For the compound `C[N+](C)(C)[C@@H](Cc1c[nH]c(=S)[nH]1)C(=O)[O-]` [ergothioneine], in series [1], the “day on which ergothioneine content in the egg yolk returned to the initial value” was found to be 58 days, the “increase of ergothioneine content in the egg yolk over initial value” is “about 8.5 times” and the “start of concentration of ergothioneine to the egg yolk” value is reported as “second day”. Besides, in series [2], the “day on which ergothioneine content in the egg white returned to the initial value” amounted to 71 days, the “increase of ergothioneine content in the egg white over initial value” is “about 12.8 times” and the “start of concentration of ergothioneine to the egg white” value is on record as “first day”.
